Calls of active or inactive are those of the source.
Assays:
Type in all cases: functional
[1] = Vero cell cytotoxicity, dose response, cytotoxicity control for M. tuberculosis growth inhibitor project, Vero cells, purified and synthesized compounds, set 5 (AID 504909); settings: Mycobacterium tuberculosis
[2] = THP-1 cell cytotoxicity, cytotoxicity control, set 4 (AID 504911); settings: Mycobacterium tuberculosis
[3] = biological target: Neuropeptides B/W receptor type 1 (Homo sapiens, UniProt P48145); test: human NPBW1 receptor blockade, IC50 – cell-based, fluorescence, dose response, set 5, late-stage follow-up (AID 588566)
[4] = biological target: Melanin-concentrating hormone receptor 1 (Homo sapiens, UniProt Q99705); test: Late-stage fluorescence-based counterscreen for antagonists of the G-protein coupled receptor 7 (GPR7): cell-based dose response assay to identify antagonists of the melanin-concentrating hormone receptor 1 (MCHR1) Set 5.
Chain of Melanin-concentrating hormone receptor 1 (Q99705 whole entry): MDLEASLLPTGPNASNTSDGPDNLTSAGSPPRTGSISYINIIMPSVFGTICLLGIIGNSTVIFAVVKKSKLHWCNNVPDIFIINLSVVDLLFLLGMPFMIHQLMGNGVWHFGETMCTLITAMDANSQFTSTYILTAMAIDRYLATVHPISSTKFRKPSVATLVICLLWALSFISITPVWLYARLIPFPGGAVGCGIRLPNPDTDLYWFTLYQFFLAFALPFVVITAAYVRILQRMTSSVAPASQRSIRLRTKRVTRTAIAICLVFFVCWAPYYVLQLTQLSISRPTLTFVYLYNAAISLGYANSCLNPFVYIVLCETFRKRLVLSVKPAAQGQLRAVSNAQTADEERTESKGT

Chain of Neuropeptides B/W receptor type 1 (P48145 whole entry): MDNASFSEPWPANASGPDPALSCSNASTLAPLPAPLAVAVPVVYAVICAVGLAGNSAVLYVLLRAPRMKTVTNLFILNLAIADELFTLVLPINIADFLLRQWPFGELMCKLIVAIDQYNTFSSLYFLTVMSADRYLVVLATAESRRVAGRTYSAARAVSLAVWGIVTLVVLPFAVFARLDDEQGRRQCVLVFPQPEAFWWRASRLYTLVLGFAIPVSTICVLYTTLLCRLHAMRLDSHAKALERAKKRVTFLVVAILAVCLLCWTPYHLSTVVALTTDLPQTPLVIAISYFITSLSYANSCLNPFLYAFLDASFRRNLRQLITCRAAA

Structure (SMILES) | CC50 [1] | CC50 [2] | IC50 [3] | IC50 [4]
CO[C@H]1/C=C/O[C@@]2(C)Oc3c(C)c(O)c4c(O)c(c(C=NN5CCN(C)CC5)c(O)c4c3C2=O)NC(=O)/C(C)=C\C=C\[C@H](C)[C@H](O)[C@@H](C)[C@@H](O)[C@@H](C)[C@H](OC(C)=O)[C@@H]1C [RIFAMPIN] | > 100 µM (active) | 79.7 µM (active) |  | 
COc1ccc(Oc2c(Cl)cnn(CC(=O)C(C)(C)C)c2=O)cc1 |  |  | > 20 µM (inactive) | > 20 µM (inactive)

— ChEMBL document CHEMBL1201862, “PubChem BioAssay data set” (2004)
